Here are results for 1 molecule from patent US20180092908A1, “SMALL MOLECULE OXIDIZERS OF PDI AND THEIR USE” (THE TRUSTEES OF COLUMBIA UNIVERSITY IN THE CITY OF NEW YORK, priority 2015, published 2018).

Structures are written as SMILES. Values after ≈ are worked out from the molar mass of the structure shown. Where two headings read alike, the source gives them in different places.

In general, solubility refers to the concentration that dissolves in the medium under given conditions.

For series [1], the system named is striatal medium spiny neurons (MSNs). As to the kind of experiment: HD brain slice assay (mHTT-Q73 transfected corticostriatal explants). The series is classed as cell-based. The following applies: rat corticostriatal brain slice explants, YFP + mHTT-Q73, 4 days. How it is done: Brain slice explants were prepared and transfected as previously described (Reinhart et al., 2011). Briefly, brains were taken from postnatal day 10 CD Sprague-Dawley rat pups and cut into 250 μm coronal slices on a vibratome (Vibratome Co., St. Louis, Mo.). Brain slices containing striatum and cortex were then placed in individual wells of 12-well plates atop culture medium set in 0.5% agarose and maintained at 32° C. under 5% CO2. Co-transfection with YFP and Htt exon-1 containing a 73 polyglutamine repeat was done using a biolistic device (Bio-Rad Helios Gene Gun, Hercules, Calif.). Positive controls were transfected with YFP only or treated with a combination of 50 μM KW-6002 (istradefylline) and 50 μM SP600125. Negative control brain slices were treated with 0.1% DMSO carrier only. Striatal medium spiny neurons (MSNs) expressing YFP were visualized under fluorescence microscopy and identified based on their location within brain slices and their characteristic morphology.
Having elucidated aspects of the biophysical mechanism of action of LOC14 binding to PDI, the next exploration concerned whether LOC14 would be a good candidate for in vivo studies. […] In the absence of LOC14, very few healthy MSNs remained, as assessed by the lack of normal sized and shaped cell bodies, absence of long primary dendrites, and lack of continuous expression of YFP throughout the cell (FIG. 10).

The target of the next series is T1, PDIa (Homo sapiens, UniProt P07237).
T1 construct: made in house; host or cells: Escherichia coli BL21-Gold (DE3)
T1 sequence (P07237 with tags, fused parts or gaps): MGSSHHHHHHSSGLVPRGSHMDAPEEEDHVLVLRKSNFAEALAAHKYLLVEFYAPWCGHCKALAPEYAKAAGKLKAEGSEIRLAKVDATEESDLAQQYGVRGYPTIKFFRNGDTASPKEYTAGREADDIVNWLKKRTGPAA
As to the kind of experiment: Size-exclusion buffer dialysis for reversibility of binding (fluorescence). The following applies: PDIa 20 μM treated with LOC14 300 μM overnight, 10 kDa filter dialysis. How it is done:
Prior to dialysis, fluorescence emission spectra were recorded from 315 nm-550 nm wavelength with excitation at 280 nm on a Tecan Infinite 200 microplate reader. Fluorescence readings were carried out in a 384-well low volume, black bottom plate. Each well contained 40 μl of either LOC14 (300 μM), PDIa (20 μM), or PDIa (20 μM) treated with LOC14 (300 μM) overnight. All samples were dissolved in buffer B (20 mM sodium phosphate buffer pH 7.8). After recording the initial fluorescence spectra, samples were then transferred to Amicon Ultra 10 kDa size exclusion filter spin columns for dialysis. […] This step was repeated three more times with fresh buffer B. 40 μl of the collected samples from the flow-through and the spin-column chamber were transferred to a new 384-well plate and the emission spectra recorded as described above.
To investigate the mode of binding further and to determine whether the binding was reversible or irreversible, the fluorescence of the LOC14-PDIa complex was analyzed before and after buffer dialysis. […] If LOC14 binds irreversibly to the protein, then the same fluorescence spectrum of the LOC14-PDIa complex would be seen before and after dialysis in the dialysis chamber and none in the buffer compartment, assuming the fluorescence of LOC14 was not dramatically altered upon binding. […]

Series [2] is described as follows: Mouse microsome stability assay. To be noted: for half-life at 0.5 μM: mouse, liver microsomes, pH 7.4, mouse liver microsomes. The series is classed as in vitro ADME. The method, then: At 0, 5, 15, 30 and 45 minute intervals, an aliquot was taken and quenched with acetonitrile (ACN) containing internal standard. No-cofactor controls at 45 minutes were prepared. Following completion of the experimentation, the samples were analyzed by LC-MS/MS. […] C=initial×exp (−k×t). Intrinsic clearance (CLint) was calculated as liver clearance from the half-life using the following equation: CLint=k×(ml incubation/0.5 mg protein)×(52.5 mg protein/g liver). Results were reported as peak area ratios of analyte to internal standard. The intrinsic clearance (CLint) was determined from the first order elimination constant by non-linear regression. The microsome stability assay, plasma stability assay, and plasma protein binding assay were each performed by Alliance Pharma, Inc. (Malvern, Pa.).

The nature of a further series: physchem. To be noted: organic solvent or mixture.
Series [3] addresses T2, recombinant catalytic a domain of human PDI A1 (PDIa) (Homo sapiens, UniProt P07237).
T2 construct: made in house; host or cells: Escherichia coli BL21-Gold (DE3)
As to the kind of experiment: Insulin aggregation assay (PDIa reductase activity). The series is classed as biochemical.

The next series relates to plasma proteins. As to the kind of experiment: Mouse plasma protein binding assay. The following applies: mouse plasma. The series is classed as in vitro ADME.
A short description of series [4]: Mouse plasma protein binding assay. Type of series: in vitro ADME. To be noted: mouse; plasma, compound 2000 ng/mL, mean±SD (n=3).
Method: (§1) A test compound at the concentration of 2000 ng/mL in plasma was added into the sample chamber, and a dialysis buffer phosphate-buffered saline (PBS) was added into the buffer chamber, covering the unit with sealing tape and incubating for 4 hours at 37° C. at approximately 100 rpm on an orbital shaker. The incubation samples were taken from both plasma and buffer chamber at the end of the incubation, and then samples were analyzed by LC-MS/MS. Protein binding and free fraction percentage were determined using peak area ratio of analyte to internal standard. Fraction bound percent was calculated as: % Bound=100*(Cplasma−CPBS)/Cplasma. The fraction recovered percent was calculated as: % Recovery=(VPBS*CPBS+Vplasma*Cplasma)/(Vplasma*Cspike) where VPBS is Volume of PBS, Vplasma is Volume of Plasma, CPBS is Drug concentration in PBS (Analyte/IS peak area ratio), Cplasma is Drug concentration in plasma (Analyte/IS peak area ratio), Cspike is Drug concentration in spiked plasma (Analyte/IS peak area ratio).
Series [5] addresses T3, human catalytic PDI A1 a domain (PDIa) (Homo sapiens, UniProt P07237).
T3 construct: made in house; host or cells: Escherichia coli BL21-Gold (DE3)
As to the kind of experiment: Isothermal titration calorimetry (ITC) binding to PDIa. The following applies: 400 μM LOC14 into 40 μM oxidized PDIa, compared to reduced PDIa. On the technique in general: Isothermal titration calorimetry measures the heat released or taken up as one component is titrated into another.

Setting [6] is: mouse liver microsomes, compound 0.5 μM.

T2 sequence (P07237 with tags, fused parts or gaps): as above
T3 sequence (P07237 with tags, fused parts or gaps): as above
Method for plasma proteins: as §1

As to `O=C(C1CC1)N1CCN(Cn2sc3ccccc3c2=O)CC1` [LOC14, 2-((4-(cyclopropanecarbonyl)piperazin-1-yl)methyl)benzo[d]isothiazol-3(2H)-one], the “rescue of MSNs from mutant huntingtin-induced neurodegeneration” value in series [1] is listed as “rescued MSNs in a concentration-dependent manner”. Moreover, at PDIa, the “binding to PDIa reversible or irreversible” value is listed as “reversible”. Besides, the intrinsic clearance value result in series [2] (mouse liver microsomes) is “less than 0.5 ml/min/g”. In addition, the “Elimination rate constant (k)” value in series [2] (setting [6]) is listed as 0.0016. Moreover, in series [2] (setting [6]), the “Intrinsic Clearance (CLint), mL/min/g liver” value is listed as 0.17 mL/min/g liver. Further, the half-life at 0.5 μM was 7.31 h in series [2] (compound 0.5 μM, read-out: Half-life (t1/2)) and greater than 1.5 h in series [2] (read-out: half-life). Further, the solubility in “physchem” (DMSO) worked out at 40 mg/mL (≈ 126 mM); in the series “physchem” (EtOH) it was 20 mg/mL (≈ 63 mM); in the series “physchem” (MeOH) it was 40 mg/mL (≈ 126 mM); in “physchem” (NMP), 80 mg/mL (≈ 252 mM). Also, the “inhibition of PDIa enzymatic activity” value in series [3] (compound 75 μM, PDIa 5 μM) was “almost completely inhibit”. Further, the “inhibition of PDI's reduction of insulin without dilution” value in series [3] (compound 750 μM) is “able to inhibit”. For the same molecule, the “binding to the plasma proteins” value in the series with plasma proteins was “low binding”. In addition, in series [4], the recovery at 4 h, 2000 ng/mL was 113.8 ± 0.76%. Moreover, the “binding affinity to oxidized PDIa” value in series [5] is on record as “loss in binding affinity”.
